Measurements taken from ChEMBL document CHEMBL1139964, “Biopartitioning micellar chromatography to predict mutagenicity of aromatic amines” (Eur J Med Chem, 2007).
In brackets after ≈: the same amount, converted by molar mass.

What was measured:
[1] = Solubility in water; format: physicochemical; conditions: buffer
[2] = Partition coefficient, log P of the compound; format: physicochemical; conditions: octanol/water

Compound | Solubility [1] | logP [2]
Nc1ccc2c3c(cccc13)-c1ccccc1-2 | 0.715 g/L (≈ 3.29 mM) | 
Nc1c(Br)cc([N+](=O)[O-])cc1[N+](=O)[O-] |  | 2.73
Nc1cccc2cc3ccccc3cc12 | 2.59 g/L (≈ 13.4 mM) | 
Nc1ccc2c(c1)Cc1ccccc1-2 | 8.78 g/L (≈ 48.4 mM) | 
Nc1ccc(Cc2ccc(N)cc2)cc1 | 1 10^3g/L | 
Nc1ccc2cc3ccccc3cc2c1 [2-AMINOANTHRACENE] | 1.3 g/L (≈ 6.73 mM) | 2.62
Nc1ccc(Br)cc1 [4-BROMOANILINE] | 707 g/L (≈ 4110 mM) | 
Nc1ccc2ccc3cccc4ccc1c2c34 [AMINOPYRENE] | 0.576 g/L (≈ 2.65 mM) | 4.99
Cc1cc(-c2ccc(N)c(C)c2)ccc1N [ORTHOTOLIDINE] | 1.3 10^3g/L | 
